For orientation: DC50 means the concentration giving 50% degradation.

Read-outs that look alike come from different tables or passages of the source. A value given as a limit tells only on which side of the number the result lay.

Among the data in US12091411B2, “IRAK degraders and uses thereof” (Kymera Therapeutics, Inc., priority 2022, dated 2024) are DC50 values, retold here.

The experiment concerns the target T1, IRAK4 (Homo sapiens, UniProt Q9NWZ3).
T1 construct: Degradation of IRAK4 in OCI-LY10 was quantitatively measured using Meso Scale Discovery technology; endogenous in cells; host or cells: OCI-LY10
T1 sequence (Q9NWZ3 1-460): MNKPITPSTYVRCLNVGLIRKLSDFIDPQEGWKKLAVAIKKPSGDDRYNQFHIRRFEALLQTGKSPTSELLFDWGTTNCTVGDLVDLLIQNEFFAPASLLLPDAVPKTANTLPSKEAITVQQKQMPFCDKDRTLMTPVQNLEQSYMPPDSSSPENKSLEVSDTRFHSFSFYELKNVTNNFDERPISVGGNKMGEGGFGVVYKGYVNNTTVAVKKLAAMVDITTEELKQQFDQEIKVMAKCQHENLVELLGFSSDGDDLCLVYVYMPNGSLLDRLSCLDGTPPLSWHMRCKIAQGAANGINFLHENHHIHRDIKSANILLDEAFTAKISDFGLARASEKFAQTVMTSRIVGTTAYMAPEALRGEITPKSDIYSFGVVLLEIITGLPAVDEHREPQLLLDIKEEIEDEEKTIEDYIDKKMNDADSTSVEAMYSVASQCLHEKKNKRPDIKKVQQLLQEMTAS
The experiment is described as follows: IRAK4 MSD Degradation in OCI-LY10. Particulars: OCI-LY10 cells, MSD. Format: cell-based. The procedure, abridged:
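DC50, from a three-parameter logistic fit and reported as letter bins A (<0.01 μM), B, C, D (>0.2 μM or not tested), reflects IRAK4 loss measured by MSD electrochemiluminescence in OCI-LY10 lysates. Treatment: 8 doses, 1:3 steps, top 1 to 10 μM, 4 to 24 h, 37 °C.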

The mark [1] stands for this setting: 4 hrs incubation, read-out: IRAK4 degradation in OCI-LY10 at 4 hrs: DC50.
The mark [2] stands for this setting: 24 hrs incubation, read-out: IRAK4 degradation in OCI-LY10 at 24 hrs: DC50.

Regarding `COc1nn([C@H]2CC[C@H](CN3CC4CC3CN4c3cccc4c3n(C)c(=O)n4C3CCC(=O)NC3=O)CC2)cc1NC(=O)c1cnn2cc(N(C)C)cnc12` (stereo partly shown) [I-214], the DC50 was greater than 200 nM under setting [1] and greater than 200 nM under setting [2].
As for `CN(C)c1cnc2c(C(=O)Nc3cn([C@H]4CC[C@H](CN5CCN(c6cccc7c6n(C)c(=O)n7C6CCC(=O)NC6=O)CC5)CC4)nc3F)cnn2c1` (stereo partly shown) [I-215], the DC50 runs as follows: under setting [1], greater than 200 nM; under setting [2], greater than 200 nM.
Regarding `Cc1nn([C@H]2CC[C@H](CN3CCN(c4cccc5c4n(C)c(=O)n5C4CCC(=O)NC4=O)CC3)CC2)cc1NC(=O)c1cnn2cc(N(C)C)cnc12` (stereo partly shown) [I-216], the DC50 reads like this: under setting [1], greater than 200 nM; under setting [2], greater than 200 nM.
As for `Cc1nn([C@H]2CC[C@H](CN3CCN(c4ccc5c(c4)n(C)c(=O)n5C4CCC(=O)NC4=O)CC3)CC2)cc1NC(=O)c1cnn2cc(N(C)C)cnc12` (stereo partly shown) [I-217], the DC50 runs as follows: under setting [1], greater than 200 nM; under setting [2], greater than 200 nM.
Regarding `O=C1CCN(c2ccc(C#CCOC3CCN(C[C@H]4CC[C@H](n5cc(NC(=O)c6cnn7ccc(N8C[C@H]9C[C@@H]8CO9)nc67)c(C(F)F)n5)CC4)CC3)cc2)C(=O)N1` [I-218], the DC50 reads like this: under setting [1], 100 to 200 nM; under setting [2], greater than 200 nM.
Turning to `Cn1c(=O)n(C2CCC(=O)NC2=O)c2cccc(C#CCN3CCN(C[C@H]4CC[C@H](n5cc(NC(=O)c6cnn7ccc(C(C)(C)C)nc67)c(C(F)F)n5)CC4)CC3)c21` (stereo partly shown) [I-219], the DC50 by setting is: under setting [1], greater than 200 nM; under setting [2], greater than 200 nM.
`COC(C)(C)c1ccn2ncc(C(=O)Nc3cn([C@H]4CC[C@H](CN5CCN(CC#Cc6cccc7c6n(C)c(=O)n7C6CCC(=O)NC6=O)CC5)CC4)nc3C(F)F)c2n1` (stereo partly shown) [I-220]: the DC50 was greater than 200 nM under setting [1] and greater than 200 nM under setting [2].
With `Cn1c(=O)n(C2CCC(=O)NC2=O)c2cccc(C#CCN3CCN(C[C@H]4CC[C@H](n5cc(NC(=O)c6cnn7ccc(N8CCCC8(C)C)nc67)c(C(F)F)n5)CC4)CC3)c21` (stereo partly shown) [I-221], the DC50 under setting [1] was greater than 200 nM and the 50% degradation concentration (DC50) under setting [2] lay in the range of 10 to 100 nM.
For the compound `Cn1c(=O)n(C2CCC(=O)NC2=O)c2cccc(C#CCN3CCN(C[C@H]4CC[C@H](n5cc(NC(=O)c6cnn7ccc(N8CCCC89CC9)nc67)c(C(F)F)n5)CC4)CC3)c21` (stereo partly shown) [I-222], the DC50 is greater than 200 nM under setting [1] and 10 to 100 nM under setting [2].
For `Cn1c(=O)n(C2CCC(=O)NC2=O)c2cccc(C#CCN3CCN(C[C@H]4CC[C@H](n5cc(NC(=O)c6cnn7ccc(N8CCC(C)(C)C8)nc67)c(C(F)F)n5)CC4)CC3)c21` (stereo partly shown) [I-223] the same measures were greater than 200 nM and 10 to 100 nM.
As to `Cn1c(=O)n(C2CCC(=O)NC2=O)c2cccc(C#CCN3CCN(C[C@H]4CC[C@H](n5cc(NC(=O)c6cnn7ccc(N8CCC9(CC9)C8)nc67)c(C(F)F)n5)CC4)CC3)c21` (stereo partly shown) [I-224], the DC50 was greater than 200 nM under setting [1] and 10 to 100 nM under setting [2].
For the compound `Cn1c(=O)n(C2CCC(=O)NC2=O)c2cccc(C#CCN3CCN(C[C@H]4CC[C@H](n5cc(NC(=O)c6cnn7ccc(N8CC(C)(C)C8)nc67)c(C(F)F)n5)CC4)CC3)c21` (stereo partly shown) [I-225], the DC50 is, setting by setting: under setting [1], greater than 200 nM; under setting [2], less than 10 nM.
For `Cn1c(=O)n(C2CCC(=O)NC2=O)c2cccc(C#CCN3CCN(C[C@H]4CC[C@H](n5cc(NC(=O)c6cnn7ccc(N8CC9(CC9)C8)nc67)c(C(F)F)n5)CC4)CC3)c21` (stereo partly shown) [I-226] the same measures were greater than 200 nM and less than 10 nM.
On to `Cn1c(=O)n(C2CCC(=O)NC2=O)c2cccc(C#CCN3CCN(C[C@H]4CC[C@H](n5cc(NC(=O)c6cnn7ccc(N8CCC(C)(C)CC8)nc67)c(C(F)F)n5)CC4)CC3)c21` (stereo partly shown) [I-227], for which the DC50 is greater than 200 nM under setting [1] and 10 to 100 nM under setting [2].
For `Cn1c(=O)n(C2CCC(=O)NC2=O)c2cccc(C#CCN3CCN(C[C@H]4CC[C@H](n5cc(NC(=O)c6cnn7ccc(N8CCC9(CC8)CC9)nc67)c(C(F)F)n5)CC4)CC3)c21` (stereo partly shown) [I-228] the same measures were greater than 200 nM and less than 10 nM.
For `Cn1c(=O)n(C2CCC(=O)NC2=O)c2cccc(C#CCN3CCN(C[C@H]4CC[C@H](n5cc(NC(=O)c6cnn7ccc(N8CCCC(C)(C)C8)nc67)c(C(F)F)n5)CC4)CC3)c21` (stereo partly shown) [I-229] the same measures were greater than 200 nM and 10 to 100 nM.
`Cn1c(=O)n(C2CCC(=O)NC2=O)c2cccc(C#CCN3CCN(C[C@H]4CC[C@H](n5cc(NC(=O)c6cnn7ccc(N8CCCCC8(C)C)nc67)c(C(F)F)n5)CC4)CC3)c21` (stereo partly shown) [I-230]: the DC50 runs as follows: under setting [1], greater than 200 nM; under setting [2], 10 to 100 nM.
For the compound `Cn1c(=O)n(C2CCC(=O)NC2=O)c2cccc(C#CCOC3CCN(C[C@H]4CC[C@H](n5cc(NC(=O)c6ccn7ccc(N8C[C@H]9C[C@@H]8CO9)nc67)c(C(F)F)n5)CC4)CC3)c21` (stereo partly shown) [I-231], the DC50 is, setting by setting: under setting [1], greater than 200 nM; under setting [2], greater than 200 nM.
Regarding `Cn1c(=O)n(C2CCC(=O)NC2=O)c2cccc(C#CCOC3CCN(C[C@H]4CC[C@H](n5cc(NC(=O)c6ccn7ccc(N8C[C@@H]9C[C@H]8CO9)nc67)c(C(F)F)n5)CC4)CC3)c21` (stereo partly shown) [I-232], the DC50 under setting [1] was greater than 200 nM and the DC50 under setting [2] is greater than 200 nM.
Regarding `Cn1c(=O)n(C2CCC(=O)NC2=O)c2cccc(C#CCN3CCN(C[C@H]4CC[C@H](n5cc(NC(=O)c6cnn7cc(N8CCCCC8)cnc67)c(C(F)F)n5)CC4)CC3)c21` (stereo partly shown) [I-233], the DC50 by setting is: under setting [1], greater than 200 nM; under setting [2], greater than 200 nM.
In the case of `CN(C)c1cnc2c(C(=O)Nc3cn([C@H]4CC[C@H](CN5CCN(CC#Cc6cccc7c6n(C)c(=O)n7C6CCC(=O)NC6=O)CC5)CC4)nc3C(F)F)cnn2c1` (stereo partly shown) [I-234], the DC50 under setting [1] was greater than 200 nM and the DC50 under setting [2] lay within 100 to 200 nM.
As for `Cn1c(=O)n(C2CCC(=O)NC2=O)c2cccc(C#CCN3CCN(C[C@H]4CC[C@H](n5cc(NC(=O)c6cnn7cccnc67)c(C(F)F)n5)CC4)CC3)c21` (stereo partly shown) [I-235], the DC50 under setting [1] was greater than 200 nM and the DC50 under setting [2] was in the range of 10 to 100 nM.
Regarding `Cn1c(=O)n(C2CCC(=O)NC2=O)c2cccc(N3CCC4(CCN(C[C@H]5CC[C@H](n6cc(NC(=O)c7cnn8cccnc78)c(C(F)F)n6)CC5)CC4)CC3)c21` (stereo partly shown) [I-236], the DC50 is greater than 200 nM under setting [1] and less than 10 nM under setting [2].
With `Cn1c(=O)n(C2CCC(=O)NC2=O)c2cccc(N3CCN(CC[C@H]4CC[C@H](n5cc(NC(=O)c6cnn7cccnc67)c(C(F)F)n5)CC4)CC3)c21` (stereo partly shown) [I-237], the DC50 was greater than 200 nM under setting [1] and 10 to 100 nM under setting [2].
With `Cn1c(=O)n(C2CCC(=O)NC2=O)c2cccc(CN3CCN(C[C@H]4CC[C@H](n5cc(NC(=O)c6cnn7cccnc67)c(C(F)F)n5)CC4)CC3)c21` (stereo partly shown) [I-238], the DC50 under setting [1] is greater than 200 nM and the DC50 under setting [2] is greater than 200 nM.
With `Cn1c(=O)n(C2CCC(=O)NC2=O)c2cccc(N3CCC(CO[C@H]4CC[C@H](n5cc(NC(=O)c6cnn7cccnc67)c(C(F)F)n5)CC4)CC3)c21` (stereo partly shown) [I-239], the DC50 reads like this: under setting [1], greater than 200 nM; under setting [2], greater than 200 nM.
With `Cn1c(=O)n(C2CCC(=O)NC2=O)c2cccc(N3CCC(OC[C@H]4CC[C@H](n5cc(NC(=O)c6cnn7cccnc67)c(C(F)F)n5)CC4)CC3)c21` (stereo partly shown) [I-240], the DC50 was greater than 200 nM under setting [1] and greater than 200 nM under setting [2].
As for `C[C@@H]([C@H]1CC[C@H](n2cc(NC(=O)c3cnn4cccnc34)c(C(F)F)n2)CC1)N(C)C1CCN(c2cccc3c2n(C)c(=O)n3C2CCC(=O)NC2=O)CC1` (stereo partly shown) [I-241], the DC50 under setting [1] was greater than 200 nM and the DC50 under setting [2] lay in the range of 100 to 200 nM.
On to `CN(C1CCN(c2cccc3c2n(C)c(=O)n3C2CCC(=O)NC2=O)CC1)[C@@H](C#N)[C@H]1CC[C@H](n2cc(NC(=O)c3cnn4cccnc34)c(C(F)F)n2)CC1` (stereo partly shown) [I-242], for which the DC50 is greater than 200 nM under setting [1] and greater than 200 nM under setting [2].
Regarding `CC(C)Oc1ccn2ncc(C(=O)Nc3cn([C@H]4CC[C@H](CN5CCN(CC#Cc6cccc7c6n(C)c(=O)n7C6CCC(=O)NC6=O)CC5)CC4)nc3C(F)F)c2n1` (stereo partly shown) [I-243], the DC50 runs as follows: under setting [1], greater than 200 nM; under setting [2], greater than 200 nM.
For `Cn1c(=O)n(C2CCC(=O)NC2=O)c2cccc(C#CCN3CCN(C[C@H]4CC[C@H](n5cc(NC(=O)c6cnn7ccc(OC8CCC8)nc67)c(C(F)F)n5)CC4)CC3)c21` (stereo partly shown) [I-244], the DC50 is, setting by setting: under setting [1], greater than 200 nM; under setting [2], greater than 200 nM.
`Cn1c(=O)n(C2CCC(=O)NC2=O)c2cccc(C#CCN3CCN(C[C@H]4CC[C@H](n5cc(NC(=O)c6cnn7ccc(OC8CCCC8)nc67)c(C(F)F)n5)CC4)CC3)c21` (stereo partly shown) [I-245]: the DC50 under setting [1] is greater than 200 nM and the DC50 under setting [2] lay in the range of 10 to 100 nM.
For the compound `Cn1c(=O)n(C2CCC(=O)NC2=O)c2cccc(C#CCN3CCN(C[C@H]4CC[C@H](n5cc(NC(=O)c6cnn7ccc(OC8CCCCC8)nc67)c(C(F)F)n5)CC4)CC3)c21` (stereo partly shown) [I-246], the DC50 reads like this: under setting [1], greater than 200 nM; under setting [2], greater than 200 nM.
For the compound `COc1cc2nn([C@H]3CC[C@H](CN4CCC5(CC4)CCN(c4cccc6c4n(C)c(=O)n6C4CCC(=O)NC4=O)CC5)CC3)cc2cc1NC(=O)c1cc(F)cc(C#N)c1` (stereo partly shown) [I-247], the DC50 under setting [1] was greater than 200 nM and the DC50 under setting [2] is less than 10 nM.
For `O=C1CCC(c2cccc3c(C#CCOC4CCN(C[C@H]5CC[C@H](n6cc(NC(=O)c7cnn8ccc(N9C[C@H]%10C[C@@H]9CO%10)nc78)c(C(F)F)n6)CC5)CC4)cccc23)C(=O)N1` (stereo partly shown) [I-248] the same measures were greater than 200 nM and 10 to 100 nM.
